In patent publication US20090018111A1, “Novel Antimicrobial Medicament” (priority 2004, published 2009):
Where two headings read alike, the source gives them in different places.

Key:
S. epidermidis IAM1296 = experiment: Sensitivity test (agar dilution); assay type: cell-based, Staphylococcus epidermidis; conditions: Staphylococcus epidermidis, read-out: MIC
In short: (§1)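 MICs were determined by agar dilution on Mueller Hinton agar containing twofold serial dilutions of single drugs or drug combinations. Overnight 37° C cultures were suspended in gelatin-buffered saline at about 10^6 CFU/ml, and about 5 μl was spot-inoculated. FIC index was calculated from MICs; ≤1 denotes enhancement.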

Str. pyogenes Cook = experiment: Sensitivity test (agar dilution); assay type: cell-based, Streptococcus pyogenes; conditions: Streptococcus pyogenes, read-out: MIC
In short: as §1

E. faecalis ATCC19433 = experiment: Sensitivity test (agar dilution); assay type: cell-based, Enterococcus faecalis; conditions: Enterococcus faecalis, read-out: MIC
In short: as §1

E. faecium ATCC19434 = experiment: Sensitivity test (agar dilution); assay type: cell-based, Enterococcus faecium
In short: as §1

B. subtilis ATCC6633 = experiment: Sensitivity test (agar dilution); assay type: cell-based, Bacillus subtilis; conditions: Bacillus subtilis, read-out: MIC
In short: as §1

E. coli ML1410 = experiment: Sensitivity test (agar dilution); assay type: cell-based, Escherichia coli; conditions: Escherichia coli, read-out: MIC
In short: as §1

E. coli NIHJ JC-2 = experiment: Sensitivity test (agar dilution); assay type: cell-based, Escherichia coli; conditions: Escherichia coli, read-out: MIC
In short: as §1

E. coli ML1410 RP4 = experiment: microbe, parasite or virus in culture; assay type: cell-based, Escherichia coli; conditions: Escherichia coli
In short: as §1

P. vulgaris GN7919 = experiment: Sensitivity test (agar dilution); assay type: cell-based, Proteus vulgaris; conditions: Proteus vulgaris, read-out: MIC
In short: as §1

P. vurgalis OX-19 = experiment: Sensitivity test (agar dilution); assay type: cell-based, Proteus vulgaris; conditions: Proteus vulgaris, read-out: MIC
In short: as §1

S. marcescens GN6473 = experiment: Sensitivity test (agar dilution); assay type: cell-based, Serratia marcescens; conditions: Serratia marcescens, read-out: MIC
In short: as §1

S. marcescens X 100 = experiment: Sensitivity test (agar dilution); assay type: cell-based, Serratia marcescens; conditions: Serratia marcescens, read-out: MIC
In short: as §1

E. cloacae GN7471 = experiment: Sensitivity test (agar dilution); assay type: cell-based, Enterobacter cloacae; conditions: Enterobacter cloacae, read-out: MIC
In short: as §1

C[C@@H](O)[C@H]1C(=O)N2C(C(=O)O)=C(S[C@@H]3CN[C@H](C(=O)N(C)C)C3)[C@H](C)[C@H]12 [MEPM, meropenem]
MIC (S. epidermidis IAM1296; IAM1296, Concomitant (MEPM:SM = 1:1)): ≤ 0.016 µg/mL | MIC (S. epidermidis IAM1296; IAM1296, Concomitant (MEPM:SM = 1:2)): ≤ 0.016 µg/mL | MIC (S. epidermidis IAM1296; IAM1296, Concomitant (MEPM:SM = 1:4)): ≤ 0.016 µg/mL | MIC (S. epidermidis IAM1296; IAM1296, Concomitant drug (MEPM:SM = 2:1)): 0.063 µg/mL | MIC (S. epidermidis IAM1296; IAM1296, alone): 1 µg/mL | MIC (Str. pyogenes Cook; Concomitant (MEPM:SM = 1:1)): ≤ 0.016 µg/mL | MIC (Str. pyogenes Cook; Concomitant (MEPM:SM = 1:2)): ≤ 0.016 µg/mL | MIC (Str. pyogenes Cook; Concomitant (MEPM:SM = 1:4)): ≤ 0.016 µg/mL | MIC (Str. pyogenes Cook; Concomitant drug (MEPM:SM = 2:1)): ≤ 0.016 µg/mL | MIC (Str. pyogenes Cook; alone): ≤ 0.016 µg/mL | MIC (E. faecalis ATCC19433; ATCC19433, Concomitant (MEPM:SM = 1:1)): 1 µg/mL | MIC (E. faecalis ATCC19433; ATCC19433, Concomitant (MEPM:SM = 1:2)): 0.5 µg/mL | MIC (E. faecalis ATCC19433; ATCC19433, Concomitant (MEPM:SM = 1:4)): 0.25 µg/mL | MIC (E. faecalis ATCC19433; ATCC19433, Concomitant drug (MEPM:SM = 2:1)): 1 µg/mL | MIC (E. faecalis ATCC19433; ATCC19433, alone): 4 µg/mL | MIC (E. faecium ATCC19434; Concomitant (MEPM:SM = 1:2)): 0.125 µg/mL | MIC (E. faecium ATCC19434; Enterococcus faecium, ATCC19434): 0.125 µg/mL | MIC (E. faecium ATCC19434; Enterococcus faecium, ATCC19434, Concomitant (MEPM:SM = 1:4), read-out: MIC): 0.031 µg/mL | MIC (E. faecium ATCC19434; Enterococcus faecium, ATCC19434, Concomitant drug (MEPM:SM = 2:1), read-out: MIC): 0.5 µg/mL | MIC (E. faecium ATCC19434; Enterococcus faecium, ATCC19434, alone, read-out: MIC): 8 µg/mL | MIC (B. subtilis ATCC6633; ATCC6633, Concomitant (MEPM:SM = 1:1)): ≤ 0.016 µg/mL | MIC (B. subtilis ATCC6633; ATCC6633, Concomitant (MEPM:SM = 1:2)): ≤ 0.016 µg/mL | MIC (B. subtilis ATCC6633; ATCC6633, Concomitant (MEPM:SM = 1:4)): ≤ 0.016 µg/mL | MIC (B. subtilis ATCC6633; ATCC6633, Concomitant drug (MEPM:SM = 2:1)): ≤ 0.016 µg/mL | MIC (B. subtilis ATCC6633; ATCC6633, alone): 0.063 µg/mL | MIC (E. coli ML1410; ML1410, Concomitant (MEPM:SM = 1:1)): ≤ 0.016 µg/mL | MIC (E. coli ML1410; ML1410, Concomitant (MEPM:SM = 1:2)): ≤ 0.016 µg/mL | MIC (E. coli ML1410; ML1410, Concomitant (MEPM:SM = 1:4)): ≤ 0.016 µg/mL | MIC (E. coli ML1410; ML1410, Concomitant drug (MEPM:SM = 2:1)): ≤ 0.016 µg/mL | MIC (E. coli ML1410; ML1410, alone): 0.031 µg/mL | MIC (E. coli NIHJ JC-2; NIHJJC2, Concomitant (MEPM:SM = 1:1)): ≤ 0.016 µg/mL | MIC (E. coli NIHJ JC-2; NIHJJC2, Concomitant (MEPM:SM = 1:2)): ≤ 0.016 µg/mL | MIC (E. coli NIHJ JC-2; NIHJJC2, Concomitant (MEPM:SM = 1:4)): ≤ 0.016 µg/mL | MIC (E. coli NIHJ JC-2; NIHJJC2, Concomitant drug (MEPM:SM = 2:1)): ≤ 0.016 µg/mL | MIC (E. coli NIHJ JC-2; NIHJJC2, alone): ≤ 0.016 µg/mL | MIC (E. coli ML1410 RP4; ML1410RP4, Concomitant (MEPM:SM = 1:1)): ≤ 0.016 µg/mL | MIC (E. coli ML1410 RP4; ML1410RP4, Concomitant (MEPM:SM = 1:2)): ≤ 0.016 µg/mL | MIC (E. coli ML1410 RP4; ML1410RP4, Concomitant (MEPM:SM = 1:4)): ≤ 0.016 µg/mL | MIC (E. coli ML1410 RP4; ML1410RP4, Concomitant drug (MEPM:SM = 2:1)): ≤ 0.016 µg/mL | MIC (E. coli ML1410 RP4; ML1410RP4, alone): 0.031 µg/mL | MIC (P. vulgaris GN7919; GN7919, Concomitant (MEPM:SM = 1:1)): 0.031 µg/mL | MIC (P. vulgaris GN7919; GN7919, Concomitant (MEPM:SM = 1:2)): 0.031 µg/mL | MIC (P. vulgaris GN7919; GN7919, Concomitant (MEPM:SM = 1:4)): 0.031 µg/mL | MIC (P. vulgaris GN7919; GN7919, Concomitant drug (MEPM:SM = 2:1)): 0.031 µg/mL | MIC (P. vulgaris GN7919; GN7919, alone): 0.063 µg/mL | MIC (P. vurgalis OX-19; OX19, Concomitant (MEPM:SM = 1:1)): ≤ 0.016 µg/mL | MIC (P. vurgalis OX-19; OX19, Concomitant (MEPM:SM = 1:2)): ≤ 0.016 µg/mL | MIC (P. vurgalis OX-19; OX19, Concomitant (MEPM:SM = 1:4)): ≤ 0.016 µg/mL | MIC (P. vurgalis OX-19; OX19, Concomitant drug (MEPM:SM = 2:1)): 0.031 µg/mL | MIC (P. vurgalis OX-19; OX19, alone): 0.063 µg/mL | MIC (S. marcescens GN6473; GN6473, Concomitant (MEPM:SM = 1:1)): 0.031 µg/mL | MIC (S. marcescens GN6473; GN6473, Concomitant (MEPM:SM = 1:2)): 0.031 µg/mL | MIC (S. marcescens GN6473; GN6473, Concomitant (MEPM:SM = 1:4)): 0.031 µg/mL | MIC (S. marcescens GN6473; GN6473, Concomitant drug (MEPM:SM = 2:1)): 0.031 µg/mL | MIC (S. marcescens GN6473; GN6473, alone): 0.063 µg/mL | MIC (S. marcescens X 100; X100, Concomitant (MEPM:SM = 1:1)): ≤ 0.016 µg/mL | MIC (S. marcescens X 100; X100, Concomitant (MEPM:SM = 1:2)): ≤ 0.016 µg/mL | MIC (S. marcescens X 100; X100, Concomitant (MEPM:SM = 1:4)): ≤ 0.016 µg/mL | MIC (S. marcescens X 100; X100, Concomitant drug (MEPM:SM = 2:1)): 0.031 µg/mL | MIC (S. marcescens X 100; X100, alone): 0.031 µg/mL | MIC (E. cloacae GN7471; GN7471, Concomitant (MEPM:SM = 1:1)): 0.031 µg/mL | MIC (E. cloacae GN7471; GN7471, Concomitant (MEPM:SM = 1:2)): 0.031 µg/mL | MIC (E. cloacae GN7471; GN7471, Concomitant (MEPM:SM = 1:4)): 0.031 µg/mL | MIC (E. cloacae GN7471; GN7471, Concomitant drug (MEPM:SM = 2:1)): 0.031 µg/mL | MIC (E. cloacae GN7471; GN7471, alone): 0.063 µg/mL
